# Assay results from paper PMC6407599 (Journal of Enzyme Inhibition and Medicinal Chemistry, 2019).
# Where “and” joins values, the source holds several entries; their conditions need not be identical. Identical values can stand only once. Counter-ions that a name gives are not always drawn. Like-named read-outs stand apart in the source and are kept apart here. Square brackets hold non-standard residues; d marks the D form. Peptide text beside a SMILES is read from it. * marks the point of attachment. Lys(Me2) = CN(C)CCCC[C@H](N)C(=O)O; Lys(Me) = CNCCCC[C@H](N)C(=O)O; Cbz = O=C(OCc1ccccc1)*
# B1: LB63(Ac)2–Cbz (peptide)
# peptide: cyclo(K(Cbz)NS(Ac)Y(Ac)A)
# SMILES: CC(=O)OC[C@@H]1NC(=O)[C@H](CC(N)=O)NC(=O)[C@H](CCCCNC(=O)OCc2ccccc2)NC(=O)[C@H](C)NC(=O)[C@H](Cc2ccc(OC(C)=O)cc2)NC1=O
# B2: LB51 (peptide)
# peptide: KNSYF
# modifications: head-to-tail cyclic
# B3: LB51(Ac)2–Cbz (peptide)
# peptide: cyclo(K(Cbz)NS(Ac)Y(Ac)F)
# SMILES: CC(=O)OC[C@@H]1NC(=O)[C@H](CC(N)=O)NC(=O)[C@H](CCCCNC(=O)OCc2ccccc2)NC(=O)[C@H](Cc2ccccc2)NC(=O)[C@H](Cc2ccc(OC(C)=O)cc2)NC1=O
# B4: LB63 (peptide)
# peptide: KNSYA
# modifications: head-to-tail cyclic
# How the values were obtained:
# [1] = Metabolism assay using human liver microsomes; format: in vitro ADME; details: for cleavage of acetyl or trifluoroacetyl group by human liver microsomes: 180 min incubation; for cleavage of acetyl group by human liver microsomes: after 10 min
# Protocol: Human liver microsomes (Life Technologies Gibco cat. # HMMPCL) were thawed on ice and suspended in 100 mM phosphate buffer (pH 7.4) at 0.5 mg/mL. Compounds dissolved in DMSO were then added to the reaction mixture at a final concentration of 5 µM and a final DMSO concentration of 0.1%. Metabolism was initiated by adding 5 mM NADPH and the reactions were incubated at 37 °C in a water bath. Fifty microlitre aliquots of the reaction mixture were taken at various time points and added to 100 µL of cold methanol to terminate the reaction. The time points were centrifuged at 1000 × g for 5 min. Samples were stored at −20 °C until LC/MS analysis.
# Using commercially available liver microsomes that contain the full set of endoplasmic reticulum-based metabolic enzymes, including Cyp450s, in an in vitro system the O- and N-dealkylation processes of LB55 were evaluated (Figure 3)[47–48]. Human liver microsomes were purchased from Life Technologies Australia Pty Ltd (catalogue number HMMCPL) and were prepared from a pool of 50 individual male and female donors. The microsomes were diluted into phosphate buffer at pH 7.4 and incubated with LB55 at 37 °C in the presence of the enzyme cofactor NADPH, which initiates the reactions. Aliquots of the reaction mixture were taken at several time points and quenched with cold methanol, which inhibits enzyme activity. The samples were immediately centrifuged at high speed to pellet the microsomes and the supernatants were analysed via LC/MS
# However, for simplicity and speed of assessment we opted to identify the removal of the pro-drug moieties using LC/MS in selected-ion mode (SIM). We scanned for specific mass-to-charge ratios (m/z) based on the molecules molecular weight. […] LB55 was incubated with the human liver microsomes for 180 min and samples were taken at 0, 10, 20, 30, 60, 120, and 180 min and analysed via LC/MS in SIM mode. The scanning range was set at m/z 600–800, as this range would capture both the parent LB55 and any demethylated metabolites including LB51 (Figure 3).
# Using the same commercially available liver microsomal assay described earlier, we evaluated the removal of acetylated and trifluoroacetylated amino acids. The studies were performed on three amino acids on LB51 that required protecting groups: serine, tyrosine, and lysine (Figure 4).
# [2] = tested on: Hsp90-Cyp40 interaction (C-terminal domain of Hsp90 and full-length Cyp40); assay: AlphaLISA binding assay, Hsp90-Cyp40 interaction; details: for efficacy at inhibiting the binding event between Hsp90 and Cyp40: C-terminal domain of Hsp90 and full-length Cyp40; for IC50: C-terminal domain of Hsp90 and full-length Cyp40, DMSO (1%) = 100% binding, read-out: IC50, inhibition of Hsp90-Cyp40 interaction
# Protocol: The binding assays were performed using an Hsp90 (C-terminal) Inhibitor Screening Kits (cat. 50314 or 50317) purchased from BPS Bioscience. The assay was performed according to the manufacturer's protocol and utilised AlphaLISA® technology (PerkinElmer). The test compounds were dissolved in 100% DMSO and diluted with water to the desired concentration, so that the final dilution was dissolved in 5% DMSO with water. Two microlitres of the dilution was added to a 10 µL reaction so that the final concentration of DMSO was 1% in all reactions. The reactions were conducted at room temperature for 30 min in a 10 µL mixture containing assay buffer, 6 ng (24 nM) of a C-terminal Hsp90β (UniProt P08238, a.a. 527–724) or C-terminal Hsp90α (UniProt P07900, a.a. 535–732), 40 ng (60 nM) Cyp40, and the test compound. Note: for the full-length Hsp90 binding assays, C-terminal Hsp90 was replaced with 24 nM of full-length Hsp90α (Abcam cat # ab48801). After the 30 min incubation, 10 µL of buffer containing 20 µg/mL glutathione acceptor beads (Perkin Elmer) were added to the reaction mix and incubated for 30 min in the dark. Ten microlitres of 40 µg/mL streptavidin donor beads (Perkin Elmer) were then added and the final 30 µL mixture was incubated for 1 h in the dark. The AlphaLISA® signal was measured using a Tecan F200 Pro multimode plate reader.
# Modifications to the side chains using the common strategy of O- and N-alkylations were the first prodrugs produced (Figure 2). Compounds LB58, LB56, LB97, and LB55 were all based on the structure of LB51 but contained polar side chains that were masked with methyl moieties (Figure 2). […] However, masking groups often affect the target binding affinity, and evaluation of these molecules in binding assays was required. A biochemical assay using AlphaLISA technology was used to evaluate the efficacy of these molecules in blocking the interaction between Hsp90 and the co-chaperone, Cyp40 (Figure 2). Each compound was incubated at multiple concentrations with the C-terminal domain of Hsp90 and full-length Cyp40. Beads specific for each protein were incubated with the reaction mixture. When the two proteins are bound to each other, the beads for one protein transfer energy to the beads of the other protein, thereby producing a signal. When the binding interaction between the two proteins is inhibited, energy transfer cannot occur, which results in no signal being produced. DMSO (1%) was used as a control, where it represents 100% binding between the two proteins.
# The alpha biochemical assay was used to evaluate the efficacy of these two molecules, LB51(Ac)2–Cbz and LB63(Ac)2–Cbz, in blocking the interaction between Hsp90 and the co-chaperone, Cyp40 (Figure 6(A)). Each compound was incubated at multiple concentrations with the C-terminal domain of Hsp90 and full-length Cyp40. DMSO (1%) was used as a negative control to represent 100% binding between the two proteins, and LB51 and LB63 were used as positive controls, inhibiting the binding event. LB51(Ac)2–Cbz was ineffective at inhibiting the interaction between Hsp90 and Cyp40 (Figure 6(a)).
# Caco-2 = details: cited from earlier work; for apparent permeability Papp: Caco-2 assays
# mouse liver = assay: Metabolism assay in a mouse (liver extract, LC/MS); format: in vivo; details: IP injection 59.4 mg/kg, 1 h
# Protocol: Mice were purchased from Australian BioResources (ABR) (Moss Vale, NSW, Australia) at 7 weeks of age and shipped to a specific pathogen-free facility at UNSW Biological Resources Centre (Sydney, Australia) with 12 h light/dark cycles. Following 1 week of acclimatisation, mice were injected in the intraperitoneal space with LB55 (1.2 mg in 120 µL Milli-Q water). One hour later, mice were euthanised by CO2 asphyxiation and the liver was collected for drug extraction. All mouse experiments were approved by the UNSW Animal Care and Ethics Committee. To extract the compound for LC/MS analysis, the liver tissue was powdered in a mortar and pestle that had been pre-cooled with liquid nitrogen. The tissue was then homogenised in phosphate buffered saline (pH 7.4) by sonication for 2 h. The homogenate was then centrifuged at 800 × g for 10 min at 4 °C before collecting the supernatant. […] The extraction was then centrifuged at 1000 × g for 10 min at 4 °C and subsequently analysed by LC/MS.
# The stability of LB55 in a mouse liver was accomplished by treating the mouse with LB55 via intraperitoneal (IP) injection at 59.4 mg/kg for 1 h. […] The mixture was then centrifuged, and the supernatant was analysed via LC/MS in SIM mode, scanning for parent LB55 and any demethylated metabolites including LB51.
# [3] = target: C-terminal Hsp90 (His-tagged, competitive binding assay); assay: pull-down; competitive binding: C-terminal Hsp90 (100 µM) with LB51-tag (100 µM) 1 h at RT, then untagged compound (0–100 µM) 1 h; captured on NeutrAvidin agarose, 6 washes; Hsp90 detected by Western blot with anti-6×His; DMSO = 100% binding
# Sequence of C-terminal Hsp90 (His-tagged, competitive binding assay) (P08238 527-724): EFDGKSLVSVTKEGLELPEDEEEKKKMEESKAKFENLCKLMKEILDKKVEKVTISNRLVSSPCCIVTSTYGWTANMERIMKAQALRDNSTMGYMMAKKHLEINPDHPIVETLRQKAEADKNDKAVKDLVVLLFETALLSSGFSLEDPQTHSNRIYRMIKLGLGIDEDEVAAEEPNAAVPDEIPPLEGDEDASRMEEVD
# C-terminal Hsp90β [4] = target: T1, C-terminal Hsp90β (UniProt P08238, a.a. 527–724) or C-terminal Hsp90α (UniProt P07900, a.a. 535–732) (UniProt P08238); assay: AlphaScreen or HTRF; AlphaLISA competition (BPS Bioscience kit): 24 nM C-terminal Hsp90, 60 nM Cyp40 and test compound in 10 µL assay buffer, 1% DMSO, room temperature, 30 min; then glutathione acceptor beads and streptavidin donor beads; DMSO = 100% binding
# C-terminal Hsp90β [5] = target: T1, C-terminal Hsp90β; assay: as above; remark: listed apart in the source
molecule,measurement,setting,value
CC(=O)NCCCC[C@H](NC(=O)OCC1c2ccccc2-c2ccccc21)C(=O)O,cleavage of acetyl or trifluoroacetyl group by human liver microsomes,[1],not cleaved
O=C(N[C@@H](CCCCNC(=O)C(F)(F)F)C(=O)O)OCC1c2ccccc2-c2ccccc21 [Fmoc-Lys(Tfa)-OH],cleavage of acetyl or trifluoroacetyl group by human liver microsomes,[1],not cleaved
CC(=O)OC[C@H](NC(=O)OCC1c2ccccc2-c2ccccc21)C(=O)O [Fmoc-Ser(Ac)-OH],cleavage of acetyl group by human liver microsomes,[1],mostly cleaved
CC(=O)Oc1ccc(C[C@H](NC(=O)OCC2c3ccccc3-c3ccccc32)C(=O)O)cc1 [Fmoc-Tyr(Ac)-OH],cleavage of acetyl group by human liver microsomes,[1],mostly cleaved
"CC(=O)OC[C@@H]1NC(=O)[C@H](CC(N)=O)NC(=O)[C@H](CCCCNC(=O)OCc2ccccc2)NC(=O)[C@H](Cc2ccccc2)NC(=O)[C@H](Cc2ccc(OC(C)=O)cc2)NC1=O [LB51(Ac)2–Cbz, cyclo-Phe-Tyr(Ac)-Ser(Ac)-Asn-Lys(Cbz)] (cyclo(K(Cbz)NS(Ac)Y(Ac)F))",efficacy at inhibiting the binding event between Hsp90 and Cyp40,[2],ineffective
NCCCC[C@@H]1NC(=O)[C@H](Cc2ccccc2)NC(=O)[C@H](Cc2ccc(O)cc2)NC(=O)[C@H](CO)NC(=O)[C@H](CC(N)=O)NC1=O [LB51] (cyclo(KNSYF)),efficacy at inhibiting the binding event between Hsp90 and Cyp40,[2],most effective
same,IC50,[2],4 µM
same,apparent permeability Papp,Caco-2,3.3 ×10⁻⁶ cm/s and 3 ×10⁻⁶ cm/s
same,membrane permeability Papp,Caco-2; backbone N-methylation study,3 10^-6 cm/s
COC[C@@H]1NC(=O)[C@H](CC(N)=O)NC(=O)[C@H](CCCCN(C)C)NC(=O)[C@H](Cc2ccccc2)NC(=O)[C@H](Cc2ccc(OC)cc2)NC1=O [LB55] (cyclo([Lys(Me2)]NS(Me)Y(Me)F)),metabolism by human liver microsomes (LC/MS SIM),"[1]; 5 µM, NADPH, 37 °C, 180 min",no metabolism occurred
same,metabolism in mouse liver (LC/MS of liver extract),mouse liver,a small quantity of LB51 is produced
same,apparent permeability Papp,Caco-2,5.6 ×10⁻⁶ cm/s
"CC(=O)OC[C@@H]1NC(=O)[C@H](CC(N)=O)NC(=O)[C@H](CCCCNC(=O)OCc2ccccc2)NC(=O)[C@H](C)NC(=O)[C@H](Cc2ccc(OC(C)=O)cc2)NC1=O [LB63(Ac)2–Cbz, cyclo-Ala-Tyr(Ac)-Ser(Ac)-Asn-Lys(Cbz)] (cyclo(K(Cbz)NS(Ac)Y(Ac)A))",IC50,[2],10 µM
C[C@@H]1NC(=O)[C@H](Cc2ccc(O)cc2)NC(=O)[C@H](CO)NC(=O)[C@H](CC(N)=O)NC(=O)[C@H](CCCCN)NC1=O [LB63] (cyclo(KNSYA)),IC50,[2],2 µM
same,apparent permeability Papp,Caco-2,0.9 ×10⁻⁶ cm/s
CNCCCC[C@@H]1NC(=O)[C@H](Cc2ccccc2)NC(=O)[C@H](Cc2ccc(OC)cc2)NC(=O)[C@H](CO)NC(=O)[C@H](CC(N)=O)NC1=O [LB97] (cyclo([Lys(Me)]NSY(Me)F)),efficacy at inhibiting the binding event between Hsp90 and Cyp40,[2],most effective
same,apparent permeability Papp,Caco-2,1.9 ×10⁻⁶ cm/s
B1,IC50,[3],20 µM
same,IC50,C-terminal Hsp90β [4],10 µM
same,IC50,C-terminal Hsp90β [5],> 10 µM
B2,IC50,C-terminal Hsp90β [4],4 µM
B3,IC50,C-terminal Hsp90β [5],> 10 µM
B4,IC50,C-terminal Hsp90β [4],2 µM
